Measurements: PubChem BioAssay (NCI)
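Five concentrations, 48 hours, 96-well plates. TGI marks complete inhibition of growth.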

Assays:
Experiment in all cases: NCI tumour cell line growth inhibition, 48 h
U251 CNS = system: U251 CNS
HCT-116 colon = system: HCT-116 colon
MALME-3M melanoma = system: MALME-3M melanoma
KM12 colon = system: KM12 colon
M14 melanoma = system: M14 melanoma
SF-539 CNS = system: SF-539 CNS
UACC-62 melanoma = system: UACC-62 melanoma
NCI-H460 lung = system: NCI-H460 lung
M19-MEL melanoma = system: M19-MEL melanoma
HL-60(TB) leukemia = system: HL-60(TB) leukemia
SN12C renal = system: SN12C renal
OVCAR-3 ovarian = system: OVCAR-3 ovarian
DMS 114 small cell lung = system: DMS 114 small cell lung
A498 renal = system: A498 renal
XF 498 CNS = system: XF 498 CNS
COLO 205 colon = system: COLO 205 colon
MOLT-4 leukemia = system: MOLT-4 leukemia
SK-MEL-2 melanoma = system: SK-MEL-2 melanoma
SF-295 CNS = system: SF-295 CNS
HOP-18 NSCLC = system: HOP-18 NSCLC
LXFL 529 NSCLC = system: LXFL 529 NSCLC
SK-OV-3 ovarian = system: SK-OV-3 ovarian
DLD-1 colon = system: DLD-1 colon
RPMI-8226 leukemia = system: RPMI-8226 leukemia
OVCAR-8 ovarian = system: OVCAR-8 ovarian
TK-10 renal = system: TK-10 renal
SNB-75 CNS = system: SNB-75 CNS
HCC-2998 colon = system: HCC-2998 colon
SR leukemia = system: SR leukemia
A549 NSCLC = system: A549 NSCLC
EKVX NSCLC = system: EKVX NSCLC
SNB-78 CNS = system: SNB-78 CNS
K-562 leukemia = system: K-562 leukemia
CAKI-1 renal = system: CAKI-1 renal
UACC-257 melanoma = system: UACC-257 melanoma
NCI-H226 lung = system: NCI-H226 lung
HOP-92 NSCLC = system: HOP-92 NSCLC
SF-268 CNS = system: SF-268 CNS
HT29 colon = system: HT29 colon
NCI-H23 lung = system: NCI-H23 lung
IGROV1 ovarian = system: IGROV1 ovarian
DMS 273 small cell lung = system: DMS 273 small cell lung
HOP-62 NSCLC = system: HOP-62 NSCLC
OVCAR-5 ovarian = system: OVCAR-5 ovarian
ACHN renal = system: ACHN renal
RXF 393 renal = system: RXF 393 renal
SNB-19 CNS = system: SNB-19 CNS
NCI-H522 lung = system: NCI-H522 lung
SW-620 colon = system: SW-620 colon
UO-31 renal = system: UO-31 renal
SK-MEL-5 melanoma = system: SK-MEL-5 melanoma
KM20L2 colon = system: KM20L2 colon
HCT-15 colon = system: HCT-15 colon
OVCAR-4 ovarian = system: OVCAR-4 ovarian
786-0 renal = system: 786-0 renal

Cc1ccccc1C(=O)c1c(O)c2c(c(O)c1Br)CCCC2
TGI (U251 CNS): 31.5 µM | TGI (HCT-116 colon): 30.2 µM | TGI (MALME-3M melanoma): 24.7 µM | TGI (KM12 colon): 30.9 µM | TGI (M14 melanoma): 29.1 µM | TGI (SF-539 CNS): 33.4 µM | TGI (UACC-62 melanoma): 29 µM | TGI (NCI-H460 lung): 56.6 µM | TGI (M19-MEL melanoma): 29.4 µM | TGI (HL-60(TB) leukemia): 23 µM | TGI (SN12C renal): 33.3 µM | TGI (OVCAR-3 ovarian): 27.1 µM | TGI (DMS 114 small cell lung): 27.5 µM | TGI (A498 renal): 43.7 µM | TGI (XF 498 CNS): 36.6 µM | TGI (COLO 205 colon): 34.2 µM | TGI (MOLT-4 leukemia): 31.4 µM | TGI (SK-MEL-2 melanoma): 31.3 µM | TGI (SF-295 CNS): 47.9 µM | TGI (HOP-18 NSCLC): 25.2 µM | TGI (LXFL 529 NSCLC): 26.9 µM | TGI (SK-OV-3 ovarian): 43.6 µM | TGI (DLD-1 colon): 58.9 µM | TGI (RPMI-8226 leukemia): 57.5 µM | TGI (OVCAR-8 ovarian): 36 µM | TGI (TK-10 renal): 31.7 µM | TGI (SNB-75 CNS): 34.8 µM | TGI (HCC-2998 colon): 34 µM | TGI (SR leukemia): 44.5 µM | TGI (A549 NSCLC): 54.1 µM | TGI (EKVX NSCLC): 34.3 µM | TGI (SNB-78 CNS): 47.5 µM | TGI (K-562 leukemia): 47.8 µM | TGI (CAKI-1 renal): 35.9 µM | TGI (UACC-257 melanoma): 29.2 µM | TGI (NCI-H226 lung): 58.4 µM | TGI (HOP-92 NSCLC): 40 µM | TGI (SF-268 CNS): 29 µM | TGI (HT29 colon): 66.6 µM | TGI (NCI-H23 lung): 58.4 µM | TGI (IGROV1 ovarian): 42.6 µM | TGI (DMS 273 small cell lung): 35.4 µM | TGI (HOP-62 NSCLC): > 100 µM | TGI (OVCAR-5 ovarian): 34.6 µM | TGI (ACHN renal): 31.9 µM | TGI (RXF 393 renal): 33.7 µM | TGI (SNB-19 CNS): 54.7 µM | TGI (NCI-H522 lung): 23.4 µM | TGI (SW-620 colon): 34.1 µM | TGI (UO-31 renal): 31.7 µM | TGI (SK-MEL-5 melanoma): 35.4 µM | TGI (KM20L2 colon): 41.4 µM | TGI (HCT-15 colon): 32.9 µM | TGI (OVCAR-4 ovarian): 28.9 µM | TGI (786-0 renal): 27.9 µM
